Data published in ChEMBL document CHEMBL4382286, “Nongenotoxic 3-Nitroimidazo[1,2-a]pyridines Are NTR1 Substrates That Display Potent in Vitro Antileishmanial Activity” (ACS Med Chem Lett, 2019).

Assays:
Leishmania donovani = experiment: Antileishmanial activity against promastigote stage of Leishmania donovani MHOM/IN/00/DEVI after 72 hrs by MTT assay; type: functional, organism-based
[1] = Selectivity index, ratio of CC50 for human HepG2 cells to IC50 for promastigote stage of Leishmania donovani MHOM/IN/00/DEVI; type: toxicity; conditions: read-out: Ratio CC50/IC50
[2] = Cytotoxicity against human HepG2 cells after 72 hrs by MTT assay; type: cell-based
[3] = Solubility of the compound in RPMI medium at 4 to 6 uM; type: physicochemical

Row | solubility [3] | SMILES | IC50 (Leishmania donovani) | selectivity ratio [1] | CC50 at 72 h [2]
1 |  | O=[N+]([O-])c1c(CS(=O)(=O)c2ccccc2)nc2c(Sc3ccccc3Cl)cc(Cl)cn12 | 1400 nM | > 3.6 | > 5 µM
2 |  | O=[N+]([O-])c1c(CS(=O)(=O)c2ccccc2)nc2c(Sc3ccc(C(F)(F)F)cc3)cc(Cl)cn12 | 2100 nM | > 1.5 | > 3.9 µM
3 |  | O=[N+]([O-])c1c(CS(=O)(=O)c2ccccc2)nc2c(Sc3ccccc3C(F)(F)F)cc(Cl)cn12 | 1500 nM | > 2.7 | > 4.1 µM
4 |  | Cc1cccc(Sc2cc(Cl)cn3c([N+](=O)[O-])c(CS(=O)(=O)c4ccccc4)nc23)c1 | 1400 nM | > 4 | > 5.6 µM
5 |  | O=[N+]([O-])c1c(CS(=O)(=O)c2ccccc2)nc2c(Sc3cccc(C(F)(F)F)c3)cc(Cl)cn12 | 1300 nM | > 2.4 | > 3.9 µM
6 |  | COc1ccccc1Sc1cc(Cl)cn2c([N+](=O)[O-])c(CS(=O)(=O)c3ccccc3)nc12 | 2300 nM | > 21.7 | > 50 µM
7 | Soluble | COc1ccc(Sc2cc(Cl)cn3c([N+](=O)[O-])c(CS(=O)(=O)c4ccccc4)nc23)cc1 | 1500 nM | > 41.7 | > 62.5 µM
8 |  | Cc1ccccc1Sc1cc(Cl)cn2c([N+](=O)[O-])c(CS(=O)(=O)c3ccccc3)nc12 | 1700 nM | > 1.5 | > 3.9 µM
9 |  | O=[N+]([O-])c1c(CS(=O)(=O)c2ccccc2)nc2c(Sc3ccccc3)cc(Cl)cn12 | 1700 nM | > 2.3 | > 3.9 µM
10 |  | O=[N+]([O-])c1c(CS(=O)(=O)c2ccccc2)nc2c(Sc3cccc(Cl)c3)cc(Cl)cn12 | 700 nM | > 3.6 | > 3.9 µM
11 |  | N=C(N)c1ccc(OCCCCCOc2ccc(C(=N)N)cc2)cc1 [PENTAMIDINE] |  | 0.4 | 
12 | Insoluble | CC(C)c1ccc(Sc2cc(Cl)cn3c([N+](=O)[O-])c(CS(=O)(=O)c4ccccc4)nc23)cc1 | 1600 nM | > 15.6 | > 25 µM
13 | Insoluble | O=[N+]([O-])c1c(CS(=O)(=O)c2ccccc2)nc2c(SCc3ccc(Br)cc3)cc(Cl)cn12 |  |  | 
14 | Insoluble | COc1cccc(Sc2cc(Cl)cn3c([N+](=O)[O-])c(CS(=O)(=O)c4ccccc4)nc23)c1 | 2300 nM | > 6.8 | > 15.6 µM
15 |  | O=[N+]([O-])c1c(CS(=O)(=O)c2ccccc2)nc2c(Sc3ccc(Cl)cc3Cl)cc(Cl)cn12 | 1700 nM | > 2.2 | > 3.9 µM
16 |  | O=[N+]([O-])c1c(CS(=O)(=O)c2ccccc2)nc2c(Sc3ccc(F)cc3)cc(Cl)cn12 | 1300 nM | > 3.8 | > 5 µM
17 | Insoluble | O=[N+]([O-])c1c(CS(=O)(=O)c2ccccc2)nc2c(SCc3ccc(Cl)cc3)cc(Cl)cn12 |  |  | 
18 |  | Cc1ccc(Sc2cc(Cl)cn3c([N+](=O)[O-])c(CS(=O)(=O)c4ccccc4)nc23)cc1 | 1400 nM | > 2.2 | > 3.9 µM
19 |  | O=[N+]([O-])c1c(CS(=O)(=O)c2ccccc2)nc2c(Sc3cc(Cl)ccc3Cl)cc(Cl)cn12 | 1300 nM | > 1.5 | > 3.9 µM
20 |  | O=[N+]([O-])c1c(CS(=O)(=O)c2ccccc2)nc2c(Sc3cccc(F)c3)cc(Cl)cn12 | 1200 nM | > 2.1 | > 3.9 µM
21 |  | O=[N+]([O-])c1c(CS(=O)(=O)c2ccccc2)nc2c(Sc3ccccc3F)cc(Cl)cn12 | 1200 nM | > 4.2 | > 5 µM
22 | Insoluble | COc1ccc(CSc2cc(Cl)cn3c([N+](=O)[O-])c(CS(=O)(=O)c4ccccc4)nc23)cc1 |  |  | 
23 | Insoluble | O=[N+]([O-])c1c(CS(=O)(=O)c2ccccc2)nc2c(SCc3ccccc3)cc(Cl)cn12 |  |  | 
